Source: patent US8367708B2, “Phenyl-isoxazol-3-ol derivative” (MSD K.K., priority 2006, dated 2013)

These compounds were tested against T1, human GPR120 (Homo sapiens, UniProt Q5NUL3) (assay: Measurement of intracellular calcium concentration (FLIPR), GPR120 agonist action). Settings: human GPR120 expression CHO cells, Fluo-4 AM, read-out: IC50 (GPR120 agonist action).
T1 construct: expressed in transfected cells
T1 sequence (Q5NUL3 1-361): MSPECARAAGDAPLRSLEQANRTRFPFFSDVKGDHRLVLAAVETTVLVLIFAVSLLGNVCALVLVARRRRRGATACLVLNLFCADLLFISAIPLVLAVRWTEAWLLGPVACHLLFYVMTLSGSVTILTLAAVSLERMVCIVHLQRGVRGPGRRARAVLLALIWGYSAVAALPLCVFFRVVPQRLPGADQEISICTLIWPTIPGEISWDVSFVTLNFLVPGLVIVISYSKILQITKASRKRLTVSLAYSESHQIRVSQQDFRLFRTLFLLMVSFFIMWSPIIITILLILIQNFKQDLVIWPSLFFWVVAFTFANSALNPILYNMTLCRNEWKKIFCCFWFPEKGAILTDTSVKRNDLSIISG
Assay type: cell-based
Work on Oc1cc(-c2cc(F)c(OCc3ccccc3Oc3ccccc3)c(F)c2)on1 [Example 26, 5-(3,5-difluoro-4-((2-phenoxybenzyl)oxy)phenyl)isoxazol-3-ol] yielded an EC50 of 300 nM.
Compound COCc1cccc(CCOc2ccc(-c3cc(O)no3)cc2)c1 [Example 43, 5-(4-(2-(3-(methoxymethyl)phenyl)ethoxy)phenyl)isoxazol-3-ol] has an EC50 of 280 nM.
Oc1cc(-c2ccc(OCCc3cccc(Oc4ccccc4)c3)cc2)on1 [Example 38] gave an EC50 of 250 nM.
Cc1oc(-c2ccccc2)nc1CCOc1ccc(-c2cc(O)no2)cc1 [Example 33, 5-(4-(2-(5-methyl-2-phenyl-1,3-oxazol-4-yl)ethoxy)phenyl)isoxazol-3-ol] showed an EC50 of 620 nM.
CCOc1cccc(OCCc2ccc(-c3cc(O)no3)cc2)c1 [Example 36, 5-(4-(2-(3-ethoxyphenoxy)ethyl)phenyl)isoxazol-3-ol] was tested, and the EC50 was 100 nM.
In the case of Oc1cc(-c2ccc(OCc3cccc(Oc4ccccc4)n3)cc2)on1 [Example 3, 5-(4-((6-phenoxypyridin-2-yl)methoxy)phenyl)isoxazol-3-ol], the EC50 is reported as 180 nM.
For Oc1cc(-c2ccc(COc3cccc(Oc4ccccc4)c3)cc2)on1 [Example 45, 5-(4-((3-phenoxyphenoxy)methyl)phenyl)isoxazol-3-ol], the EC50 was 170 nM.
Oc1cc(-c2ccc(OCc3ccccc3Oc3ccccc3)nc2)on1 [Example 9, 5-(6-((2-phenoxybenzyl)oxy)pyridin-3-yl)isoxazol-3-ol] was tested, and the EC50 was 180 nM.
CC(C)Nc1cccc(CCOc2ccc(-c3cc(O)no3)cc2)c1 [Example 41] was tested, and the EC50 was 150 nM.
CC(C)Sc1ncccc1COc1ccc(-c2cc(O)no2)cc1 [Example 15, 5-(4-((2-(isopropylthio)pyridin-3-yl)methoxy)phenyl)isoxazol-3-ol] showed an EC50 of 70 nM.
